Laboratory results published in patent publication US20090053138A1, “Stabilized Aptamers to Platelet Derived Growth Factor and their Use as Oncology Therapeutics” (priority 2002, published 2009).
{PEG40k} = 40 kDa polyethylene glycol; [invdT] = inverted (3'-3') thymidine; [HEG] = hexaethylene glycol spacer

Legend:
rat PDGF-BB = biological target: T1, rat PDGF-BB (Rattus norvegicus, UniProt Q05028); assay: Cell migration assay, 3T3 cells; type: cell-based; conditions: 100 nM aptamer, 5 nM PDGF BB, 24 well format
T1 construct: purchased PeproTech, Rocky Hill, N.J
Method: PDGF is a strong mitogen as well as a chemoattractant. […] In the cell migration assay 80,000 cells 3T3 rat fibroblasts (ATCC, Manassas, Va.) or RPE (retinal pigmented epithelial) cells (ATCC, Manassas, Va.) were plated per well into a 24 well plate with 8 micron filters (BD Biosciences, Discovery Labware, Bedford, Mass.). 0.5 ml DMEM/0.2% FCS was added to the top chamber and 0.8 ml DMEM/0.2% FCS was added to the bottom chamber. The system was equilibrated by incubating for 4 hours at 37 degrees celsius. Human PDGF-BB (PeproTech, Rocky Hill, N.J.) (for RPE cells) or rat PDGF-BB (PeproTech) (for 3T3 cells) was added to the bottom chamber (0 ng/ml-100 ng/ml final concentration). The system was incubated 4 hours to 12 hours. Cells were scraped off on the top of filter with a Q-tip. The cells that migrated to the bottom of the filter were fixed with a mixture of cold 50% Methanol/50% Acetone for 3 minutes.
Following incubation filters were washed with 1×PBS and stained with Giemsa Stain (Matheson Coleman and Bell) for 1-2 hours and migration was visualized by taking pictures on a Zeiss Axiovert 200M microscope.

PDGF BB = PDGF BB (Homo sapiens, UniProt P01127); assay: 3T3 cell proliferation assay (PDGF-BB induced); type: cell-based, rat; parameters: purchased PeproTech, Rocky Hill, N.J
Method: 3T3 cells, a rat fibroblast cell line (ATCC, Manassas, Va.), were plated 3,000 cells/well in a 96 well plate one day prior to the start of the assay in 100 ul DMEM/10% FCS. The following day, cells were washed once with straight DMEM and then 75 ul DMEM/0.8% FCS was added to each well. […] Cells were incubated for 3 days. Following incubation 10 ul MTT (Promega, Madison, Wis.) was added to each well and incubated for an additional 1.5 hours. Media was then removed, 200 ul Isopropanol (2-propanol) was added to each well, cells were re-suspended thoroughly and absorbance at 570 nm was read on a 96 well plate reader.
(§1) 3T3 cells, which are derived from a rat fibroblast cell line (ATCC, Manassas, Va.), were used in a proliferation assay to test potency of modified ARC513 aptamers. 3T3 fibroblast cells have PDGF receptors on their cell-surface and respond to mitogen, e.g., PDGF stimulation by proliferation. The assay was performed as follows: 3T3 cells were plated 3,000 cells/well in a 96 well plate one day prior to the start of the assay in 100 ul DMEM/10% FCS. The following day, cells were washed once with straight DMEM and then 75 ul DMEM/0.8% FCS was added to each well. Then 25 ul of PDGF-BB (PeproTech, Rocky Hill, N.J.) at a 50 ng/ml final concentration was added to each well +/− aptamer condition to be tested. […] The functional PDGF aptamer dilutions usually consisted of 6 points in 2-fold serial dilutions.
(§2) Cells were incubated for 3 days. Following incubation 10 ul MTT (Promega, Madison, Wis.) was added to each well and incubated for an additional 1.5 hours. Media was removed, 200 μl Isopropanol (2-propanol) was added to each well, cells were re-suspended thoroughly and absorbance at 570 nm was read on a 96 well plate reader. The present example depicts the potency comparison of PDGF aptamer ARC: 513 to that of ARC 513 variants.
The 3T3 proliferation assay previously described was used to test potency of all PEG conjugated ARC513 variants described immediately above. The assay was performed as follows: 3T3 cells were plated 3,000 cells/well in a 96 well plate one day prior to the start of the assay in 100 ul DMEM/10% FCS. The following day, cells were washed once with straight DMEM and then 75 ul DMEM/0.8% FCS was added to each well. Then 25 ul of PDGF-BB (PeproTech, Rocky Hill, N.J.) at a 50 ng/ml final concentration was added to each well +/− aptamer condition to be tested. […] The functional PDGF aptamer dilutions usually consisted of 6 points in 2-fold serial dilutions.
as §2, with “ARC513” for “ARC: 513”, “PEGylated ARC513 aptamers.” for “ARC 513 variants.”
as §1, with “3T3” for “3T3 cells, which are derived from a rat fibroblast cell line (ATCC, Manassas, Va.), were used in a proliferation assay to test potency of modified ARC513 aptamers. 3T3”, “100 μl” for “100 ul”
as §2, with “[…]” for “μl”, “reader.” for “reader. The present example depicts the potency comparison of PDGF aptamer ARC: 513 to that of ARC 513 variants.”

Chain of PDGF BB (P01127 82-190 limits assumed): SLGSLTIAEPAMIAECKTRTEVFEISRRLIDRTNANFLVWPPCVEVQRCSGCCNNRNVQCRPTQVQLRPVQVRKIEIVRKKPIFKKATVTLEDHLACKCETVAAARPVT
T1 sequence (Q05028 66-174 limits assumed): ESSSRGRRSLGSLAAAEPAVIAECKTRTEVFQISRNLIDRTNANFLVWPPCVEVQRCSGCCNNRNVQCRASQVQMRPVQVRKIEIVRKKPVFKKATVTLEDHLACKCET

Row | Substance | migration of 3T3 cells (rat PDGF-BB) | effect on 3T3 cell proliferation (PDGF BB; scrambled control) | concentration reducing the PDGF driven increase in proliferation to background levels (PDGF BB) [nM] | potency compared to PDGF neutralizing polyclonal antibody (PDGF BB) | potency of legacy aptamers vs newly synthesized (PDGF BB; after lyophilization and storage at −20 degrees celsius for 2 years) | effect of 5′ conjugation to 30 kDa and 40 kDa PEG groups on in vitro activity (PDGF BB; relative to ARC126)
1 | 5′-(SEQ ID NO.4)-HEG-(SEQ ID NO:5)-HEG-(SEQ ID NO:6)-3 (chain 1 CAGCGUACG; chain 2 CGTACCGATUCA; chain 3 TGAAGCUG; HEG spacers joining pieces; synthetic aptamer; modified_base (4)..(4) cytidine is 2′-fluoro; modified_base (5)..(5) gm; modified_base (6)..(6) uridine is 2′-fluoro; modified_base (8)..(8) cytidine is 2′-fluoro; modified_base (9)..(9) gm; modified_base (7)..(7) gm; modified_base (10)..(10) uridine is 2′-fluoro; modified_base (11)..(11) cytidine is 2′-fluoro; modified_base (12)..(12) adenosine is 2′-O-Methyl; modified_base (6)..(6) cytidine is 2′-fluoro; modified_base (7)..(7) uridine is 2′-fluoro; modified_base (8)..(8) gm) [ARC128, reference compound] | no activity | never displays an effect | – | – | – | –
2 | 5′-[40 K PEG]-(SEQ ID NO:1)-HEG-(SEQ ID NO:2)-HEG-(SEQ ID NO:3)-3′-dT-3′ (chain 1 CAGGCUACG; chain 2 CGTAGAGCAUCA; chain 3 TGATCCUG; piece 1: 2'-fluoro at 6, 8, 2'-O-methyl at 9, 5' {PEG40k}, 3' [HEG], other sugars and backbone not given here; piece 2: 2'-O-methyl at 5, 7, 12, 2'-fluoro at 10, 11, 3' [HEG], other sugars and backbone not given here; piece 3: 2'-fluoro at 5, 6, 7, 2'-O-methyl at 8, 3' [invdT], other sugars and backbone not given here) [ARC127] | inhibits the effects of 5 nM PDGF-BB | – | 30 | better potency | just as potent | does not significantly reduce the in vitro activity
